Source: US8415469B2, “Compounds and methods for kinase modulation, and indications therefor” (Plexxikon Inc., priority 2005, dated 2013)

Experiments:
Assay type in all cases: biochemical
Ret = biological target: T1, Ret (Homo sapiens, UniProt P07949); test: AlphaScreen kinase assay, Ret; settings: read-out: IC50, activity toward kinase Ret
T1 construct: P1378.pET-SF BI-PTP RET H661-R1012 HIS; made in house
T1 sequence (P07949 with tags, fused parts or gaps): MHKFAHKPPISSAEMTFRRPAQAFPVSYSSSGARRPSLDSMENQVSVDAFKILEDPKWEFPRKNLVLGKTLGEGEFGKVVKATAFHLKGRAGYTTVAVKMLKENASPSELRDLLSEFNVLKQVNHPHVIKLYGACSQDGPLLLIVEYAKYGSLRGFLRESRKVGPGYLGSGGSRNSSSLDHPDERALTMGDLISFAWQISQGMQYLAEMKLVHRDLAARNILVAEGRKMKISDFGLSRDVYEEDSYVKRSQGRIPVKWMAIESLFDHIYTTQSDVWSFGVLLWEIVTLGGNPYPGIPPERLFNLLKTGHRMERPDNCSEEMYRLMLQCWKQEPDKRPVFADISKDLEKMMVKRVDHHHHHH

Kdr = biological target: T2, Kdr (Homo sapiens, UniProt P35968); test: Z'-Lyte FRET kinase assay (Invitrogen), Kdr; settings: read-out: IC50, activity toward kinase Kdr
T2 construct: purchased Invitrogen (assay run by Invitrogen)

B-Raf V600E = biological target: T3, B-Raf V600E (Homo sapiens, UniProt P15056, V600E); test: AlphaScreen kinase assay, B-Raf V600E; settings: read-out: IC50, activity toward kinase B-Raf V600E
T3 construct: P4254. pFastBacBD-CDC37 BRAF D437-K722-X, V600E; His6 with pFastBac HT leader (TEV site) (N); made in house; host or cells: Sf9 (baculovirus; chaperone CDC37 co-expressed)
T3 sequence (P15056 with tags, fused parts or gaps V600E): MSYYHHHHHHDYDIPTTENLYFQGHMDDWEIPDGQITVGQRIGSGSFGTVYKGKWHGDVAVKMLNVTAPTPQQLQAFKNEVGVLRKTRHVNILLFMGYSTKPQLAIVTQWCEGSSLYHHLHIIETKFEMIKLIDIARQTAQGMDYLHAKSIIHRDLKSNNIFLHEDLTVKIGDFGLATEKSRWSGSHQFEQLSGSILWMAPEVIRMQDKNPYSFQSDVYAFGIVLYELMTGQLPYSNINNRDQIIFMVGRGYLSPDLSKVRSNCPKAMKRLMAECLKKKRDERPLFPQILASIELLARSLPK

Pyk2 = biological target: T4, Pyk2 (Homo sapiens, UniProt Q14289); test: AlphaScreen kinase assay, Pyk2; settings: read-out: IC50, activity toward kinase Pyk2
T4 construct: purchased Upstate Biotechnology
T4 sequence (Q14289 whole entry): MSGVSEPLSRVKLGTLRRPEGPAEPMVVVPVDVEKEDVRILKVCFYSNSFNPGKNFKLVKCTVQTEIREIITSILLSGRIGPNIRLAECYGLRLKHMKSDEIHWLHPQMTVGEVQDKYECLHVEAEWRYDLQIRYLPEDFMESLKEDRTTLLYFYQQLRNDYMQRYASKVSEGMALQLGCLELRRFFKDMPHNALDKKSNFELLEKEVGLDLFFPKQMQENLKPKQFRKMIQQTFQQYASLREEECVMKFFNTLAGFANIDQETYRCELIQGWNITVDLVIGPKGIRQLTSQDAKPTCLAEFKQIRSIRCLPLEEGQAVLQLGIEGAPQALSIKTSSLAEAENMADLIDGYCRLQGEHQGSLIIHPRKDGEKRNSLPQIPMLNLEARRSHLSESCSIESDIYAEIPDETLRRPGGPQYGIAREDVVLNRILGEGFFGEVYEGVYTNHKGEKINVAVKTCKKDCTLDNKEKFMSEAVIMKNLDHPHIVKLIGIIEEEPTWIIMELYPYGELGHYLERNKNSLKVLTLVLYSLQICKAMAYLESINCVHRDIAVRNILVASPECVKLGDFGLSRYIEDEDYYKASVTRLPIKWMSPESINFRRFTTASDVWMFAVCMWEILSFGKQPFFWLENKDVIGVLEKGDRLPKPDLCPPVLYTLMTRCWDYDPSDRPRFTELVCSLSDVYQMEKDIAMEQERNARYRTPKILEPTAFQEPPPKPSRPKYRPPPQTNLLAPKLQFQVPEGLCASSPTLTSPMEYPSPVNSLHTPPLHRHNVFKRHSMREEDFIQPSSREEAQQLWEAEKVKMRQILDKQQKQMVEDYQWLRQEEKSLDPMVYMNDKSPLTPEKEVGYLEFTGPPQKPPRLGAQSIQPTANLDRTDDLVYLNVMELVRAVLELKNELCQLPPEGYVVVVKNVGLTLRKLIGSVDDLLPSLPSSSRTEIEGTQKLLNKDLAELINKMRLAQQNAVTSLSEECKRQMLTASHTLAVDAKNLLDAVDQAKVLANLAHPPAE

c-Raf-1 = biological target: T5, c-Raf-1 (Homo sapiens, UniProt P04049); test: AlphaScreen kinase assay, c-Raf-1; settings: read-out: IC50, activity toward kinase c-Raf-1
T5 construct: purchased Upstate Biotechnology
T5 sequence (P04049 whole entry): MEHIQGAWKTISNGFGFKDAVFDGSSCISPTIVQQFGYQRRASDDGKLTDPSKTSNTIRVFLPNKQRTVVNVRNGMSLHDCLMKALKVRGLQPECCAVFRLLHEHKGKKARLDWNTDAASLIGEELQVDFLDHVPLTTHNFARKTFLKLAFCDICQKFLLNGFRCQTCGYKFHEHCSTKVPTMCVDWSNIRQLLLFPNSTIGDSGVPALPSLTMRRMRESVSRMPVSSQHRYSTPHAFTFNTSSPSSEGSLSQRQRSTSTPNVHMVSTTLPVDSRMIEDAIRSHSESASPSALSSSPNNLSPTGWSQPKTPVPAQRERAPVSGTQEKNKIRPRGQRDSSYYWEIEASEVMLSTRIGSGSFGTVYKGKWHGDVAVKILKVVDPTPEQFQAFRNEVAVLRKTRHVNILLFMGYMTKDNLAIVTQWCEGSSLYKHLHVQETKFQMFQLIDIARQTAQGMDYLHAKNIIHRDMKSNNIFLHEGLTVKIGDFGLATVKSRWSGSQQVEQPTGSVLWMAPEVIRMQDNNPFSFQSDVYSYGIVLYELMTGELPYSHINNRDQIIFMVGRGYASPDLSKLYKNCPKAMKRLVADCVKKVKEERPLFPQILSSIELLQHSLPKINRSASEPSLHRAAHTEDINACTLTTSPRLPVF

FGFR1 = biological target: T6, FGFR1 (Homo sapiens, UniProt P11362, C488A/C584S); test: AlphaScreen kinase assay, FGFR1; settings: read-out: IC50, activity toward kinase FGFR
T6 construct: P1351.pET N6 BI-PTP FGFR A458-E765-X C488A, C584S; made in house; host or cells: E. coli (PTP1B co-expressed)
T6 sequence (P11362 458-765 C488A/C584S): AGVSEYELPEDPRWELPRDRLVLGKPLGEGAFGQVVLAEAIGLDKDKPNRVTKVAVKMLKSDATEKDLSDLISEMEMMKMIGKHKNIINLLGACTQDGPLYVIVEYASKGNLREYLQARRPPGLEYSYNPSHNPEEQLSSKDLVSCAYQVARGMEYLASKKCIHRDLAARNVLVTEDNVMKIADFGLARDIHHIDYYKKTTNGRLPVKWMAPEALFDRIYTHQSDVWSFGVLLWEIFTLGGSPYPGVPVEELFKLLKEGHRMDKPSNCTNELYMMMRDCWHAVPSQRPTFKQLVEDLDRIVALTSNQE

B-Raf = biological target: T7, B-Raf (Homo sapiens, UniProt P15056); test: AlphaScreen kinase assay, B-Raf; settings: read-out: IC50, activity toward kinase B-Raf
T7 construct: purchased Upstate Biotechnology
T7 sequence (P15056 whole entry): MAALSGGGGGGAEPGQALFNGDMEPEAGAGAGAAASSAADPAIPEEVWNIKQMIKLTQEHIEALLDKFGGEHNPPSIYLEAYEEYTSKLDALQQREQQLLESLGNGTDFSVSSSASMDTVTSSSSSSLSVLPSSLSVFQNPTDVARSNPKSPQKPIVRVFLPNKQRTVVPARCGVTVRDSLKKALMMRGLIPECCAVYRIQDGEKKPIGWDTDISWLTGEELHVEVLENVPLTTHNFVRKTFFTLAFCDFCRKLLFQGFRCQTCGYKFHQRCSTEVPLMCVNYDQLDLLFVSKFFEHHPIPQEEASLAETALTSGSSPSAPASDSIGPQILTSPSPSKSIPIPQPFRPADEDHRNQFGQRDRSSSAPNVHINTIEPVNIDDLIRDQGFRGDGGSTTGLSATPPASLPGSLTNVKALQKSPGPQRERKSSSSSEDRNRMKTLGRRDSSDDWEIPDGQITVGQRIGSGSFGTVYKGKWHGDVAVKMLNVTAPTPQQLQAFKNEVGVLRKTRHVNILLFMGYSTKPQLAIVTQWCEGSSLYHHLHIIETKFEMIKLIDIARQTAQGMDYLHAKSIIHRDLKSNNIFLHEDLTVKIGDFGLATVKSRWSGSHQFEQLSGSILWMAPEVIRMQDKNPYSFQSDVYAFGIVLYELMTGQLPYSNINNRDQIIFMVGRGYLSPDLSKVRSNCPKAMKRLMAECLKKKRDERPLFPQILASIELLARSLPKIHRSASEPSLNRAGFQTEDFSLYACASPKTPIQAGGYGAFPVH

Src = biological target: T8, Src (Homo sapiens, UniProt P12931); test: AlphaScreen kinase assay, Src; settings: read-out: IC50, activity toward kinase Src
T8 construct: P1144. pET-N6 BI-PTP SRC V86-L536-X; made in house

Fms = biological target: T9, Fms (Homo sapiens, UniProt P07333); test: AlphaScreen kinase assay, Fms; settings: read-out: IC50, activity toward kinase Fms
T9 construct: purchased Upstate Biotechnology
T9 sequence (P07333 20-972): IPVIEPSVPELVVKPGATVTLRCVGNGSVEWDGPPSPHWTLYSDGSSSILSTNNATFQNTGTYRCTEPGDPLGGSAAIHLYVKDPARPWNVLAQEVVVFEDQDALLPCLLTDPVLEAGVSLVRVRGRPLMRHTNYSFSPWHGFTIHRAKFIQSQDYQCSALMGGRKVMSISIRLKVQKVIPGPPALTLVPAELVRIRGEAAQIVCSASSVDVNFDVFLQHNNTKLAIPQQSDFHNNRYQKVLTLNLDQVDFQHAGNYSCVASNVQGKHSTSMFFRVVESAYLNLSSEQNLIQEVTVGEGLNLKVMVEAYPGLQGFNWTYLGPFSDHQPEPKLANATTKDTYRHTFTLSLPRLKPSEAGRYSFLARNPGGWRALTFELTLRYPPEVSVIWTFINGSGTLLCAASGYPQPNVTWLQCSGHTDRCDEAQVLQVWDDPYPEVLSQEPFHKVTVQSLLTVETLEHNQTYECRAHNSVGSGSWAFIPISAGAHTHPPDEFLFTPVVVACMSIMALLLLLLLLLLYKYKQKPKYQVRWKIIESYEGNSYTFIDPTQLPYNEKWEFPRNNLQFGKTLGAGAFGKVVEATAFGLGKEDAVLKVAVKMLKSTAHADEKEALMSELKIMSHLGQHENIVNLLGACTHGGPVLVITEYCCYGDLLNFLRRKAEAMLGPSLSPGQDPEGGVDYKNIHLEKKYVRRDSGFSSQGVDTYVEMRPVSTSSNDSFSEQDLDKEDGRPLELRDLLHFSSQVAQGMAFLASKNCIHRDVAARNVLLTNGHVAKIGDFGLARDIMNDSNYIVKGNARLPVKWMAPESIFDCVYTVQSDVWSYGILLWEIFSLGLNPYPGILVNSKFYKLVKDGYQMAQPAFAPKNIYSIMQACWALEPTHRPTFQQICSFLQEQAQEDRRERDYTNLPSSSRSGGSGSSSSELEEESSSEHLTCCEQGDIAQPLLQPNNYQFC

Kit = biological target: T10, Kit (Homo sapiens, UniProt P10721); test: AlphaScreen kinase assay, Kit; settings: read-out: IC50, activity toward kinase Kit
T10 construct: P1332.N6 BI PTP KIT M552-K948-X COD; His6 (N); made in house; host or cells: E. coli (PTP1B co-expressed)
T10 sequence (P10721 with tags, fused parts or gaps): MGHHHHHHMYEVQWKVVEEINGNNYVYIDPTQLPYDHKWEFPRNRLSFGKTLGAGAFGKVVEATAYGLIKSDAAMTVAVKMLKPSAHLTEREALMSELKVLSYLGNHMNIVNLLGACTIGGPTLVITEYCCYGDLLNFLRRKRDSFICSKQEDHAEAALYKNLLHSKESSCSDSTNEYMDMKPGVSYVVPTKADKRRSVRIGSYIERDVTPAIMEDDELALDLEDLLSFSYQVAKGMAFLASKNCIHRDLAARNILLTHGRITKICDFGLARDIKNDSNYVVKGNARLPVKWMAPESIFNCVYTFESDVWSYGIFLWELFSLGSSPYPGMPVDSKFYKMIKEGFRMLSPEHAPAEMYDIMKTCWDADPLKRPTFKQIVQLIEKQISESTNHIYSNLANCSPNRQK

Jnk1 = biological target: T11, Jnk1 (Homo sapiens, UniProt P45983); test: AlphaScreen kinase assay, Jnk1; settings: read-out: IC50, activity toward kinase Jnk1
T11 construct: purchased Upstate Biotechnology

Jnk3 = biological target: T12, Jnk3 (Homo sapiens, UniProt P53779); test: AlphaScreen kinase assay, Jnk3; settings: read-out: IC50, activity toward kinase Jnk3
T12 construct: purchased Upstate Biotechnology

Fak = biological target: T13, Fak (Homo sapiens, UniProt Q05397); test: AlphaScreen kinase assay, Fak; settings: read-out: IC50, activity toward kinase Fak
T13 construct: P1358.pFastBacHtb FAK S411-Q686-X; His6 with pFastBacHTb leader (TEV site) (N); made in house; host or cells: Sf9 (baculovirus)
T13 sequence (Q05397 411-686): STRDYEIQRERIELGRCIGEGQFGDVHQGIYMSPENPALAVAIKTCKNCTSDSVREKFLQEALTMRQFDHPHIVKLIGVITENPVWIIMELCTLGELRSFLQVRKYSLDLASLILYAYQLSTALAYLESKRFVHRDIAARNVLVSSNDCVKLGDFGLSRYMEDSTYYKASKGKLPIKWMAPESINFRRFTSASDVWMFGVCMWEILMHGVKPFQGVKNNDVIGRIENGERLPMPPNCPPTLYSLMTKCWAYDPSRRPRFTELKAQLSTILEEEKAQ

Flt1 = biological target: T14, Flt1 (Homo sapiens, UniProt P17948); test: AlphaScreen kinase assay, Flt1; settings: read-out: IC50, activity toward kinase Flt1
T14 construct: P1826.pETN6 BI-PTP FLT1 M799-D1165-X WT; His6 (N); made in house; host or cells: E. coli (PTP1B co-expressed)
T14 sequence (P17948 with tags, fused parts or gaps): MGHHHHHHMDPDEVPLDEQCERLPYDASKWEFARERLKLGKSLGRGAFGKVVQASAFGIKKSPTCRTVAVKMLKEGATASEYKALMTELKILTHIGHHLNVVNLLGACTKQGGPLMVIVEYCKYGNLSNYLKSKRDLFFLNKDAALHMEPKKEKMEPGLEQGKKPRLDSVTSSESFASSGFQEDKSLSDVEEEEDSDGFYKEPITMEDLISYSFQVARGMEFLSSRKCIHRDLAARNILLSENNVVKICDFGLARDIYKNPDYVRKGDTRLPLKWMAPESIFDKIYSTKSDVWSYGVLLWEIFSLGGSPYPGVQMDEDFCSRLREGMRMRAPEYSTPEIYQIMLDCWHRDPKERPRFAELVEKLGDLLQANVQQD

Measured: IC50

O=C(c1ccc(O)cc1Cl)c1c[nH]c2ncc(Br)cc12 [Compound P-0137]
≤ 10 µM: Ret | Kdr | B-Raf V600E | Pyk2 | c-Raf-1 | FGFR1

CN(C)S(=O)(=O)Nc1ccc(F)c(C(=O)c2c[nH]c3ncc(-c4ccccc4)cc23)c1F [Compound P-0857]
≤ 10 µM: B-Raf | Src | Fms | Kit | B-Raf V600E | Pyk2 | c-Raf-1 | FGFR1

COC(c1c(F)ccc(NS(=O)(=O)C(C)C)c1F)c1c[nH]c2ncc(Br)cc12 (stereo not drawn) [Compound P-0356, Propane-2-sulfonic acid {3-[(5-bromo-1H-pyrrolo[2,3-b]pyridin-3-yl)-methoxy-methyl]-2,4-difluoro-phenyl}-amide]
≤ 10 µM: B-Raf | B-Raf V600E | Pyk2 | c-Raf-1

CCCS(=O)(=O)Nc1ccc(F)c(Cc2c[nH]c3ncc(N4CCOCC4)cc23)c1F [Compound P-0964, Propane-1-sulfonic acid [2,4-difluoro-3-(5-morpholin-4-yl-1H-pyrrolo[2,3-b]pyridin-3-ylmethyl)-phenyl]-amide]
≤ 10 µM: Kit | B-Raf V600E | Pyk2 | c-Raf-1 | FGFR1

CCCS(=O)(=O)Nc1ccc(F)c(C(=O)c2c[nH]c3ncc(Nc4ccccc4)cc23)c1F [Compound P-0848, propane-1-sulfonic acid [2,4-difluoro-3-(5-phenylamino-1H-pyrrolo[2,3-b]pyridine-3-carbonyl)-phenyl]-amide]
not listed: Ret | Kdr | Jnk3 | Fak | Flt1
≤ 10 µM: all other assays above

COc1cccc(Cc2c[nH]c3ncc(-c4ccc(C(N)=O)cc4)cc23)c1 [Compound P-0697]
≤ 10 µM: B-Raf | Ret | Kit | Pyk2 | Jnk3 | FGFR1

CCCS(=O)(=O)Nc1ccc(F)c(C(O)c2c[nH]c3ncc(Nc4ccccc4)cc23)c1F (stereo not drawn) [Compound P-0928]
≤ 10 µM: B-Raf | B-Raf V600E | Pyk2 | c-Raf-1

CCCS(=O)(=O)Oc1ccc(F)c(C(=O)c2c[nH]c3ncc(Br)cc23)c1F [Compound P-0919, propane-1-sulfonic acid 3-(5-bromo-1H-pyrrolo[2,3-b]pyridine-3-carbonyl)-2,4-difluoro-phenyl ester]
≤ 10 µM: B-Raf | Fms | Kit | B-Raf V600E | Pyk2 | c-Raf-1 | FGFR1

CC(C)S(=O)(=O)Nc1ccc(F)c(Cc2c[nH]c3ncc(Br)cc23)c1F [Compound P-0867, Propane-2-sulfonic acid [3-(5-bromo-1H-pyrrolo[2,3-b]pyridin-3-ylmethyl)-2,4-difluoro-phenyl]-amide]
≤ 10 µM: Fak | B-Raf | Fms | Kit | B-Raf V600E | Pyk2 | c-Raf-1 | FGFR1

CN(C)S(=O)(=O)Nc1ccc(F)c(C(=O)c2c[nH]c3ncc(Br)cc23)c1F [Compound P-0898, Dimethylamine-1-sulfonic acid [3-(5-bromo-1H-pyrrolo[2,3-b]pyridine-3-carbonyl)-2,4-difluoro-phenyl]-amide]
≤ 10 µM: B-Raf | Src | Fms | Kit | B-Raf V600E | Pyk2 | c-Raf-1 | FGFR1

CCCC(=O)Nc1ccc(F)c(C(=O)c2c[nH]c3ncc(OC)cc23)c1F [Compound P-1370]
≤ 10 µM: Jnk1 | Flt1 | Fms | Kit | B-Raf V600E | Pyk2

CCCS(=O)(=O)Nc1ccc(F)c(C(O)c2c[nH]c3ncc(-c4ccccc4)cc23)c1F (stereo not drawn) [Compound P-0946]
≤ 10 µM: B-Raf | B-Raf V600E | Pyk2 | c-Raf-1

Clc1cccc(Nc2ccc3cc[nH]c3n2)c1 [Compound P-1373, (3-Chloro-phenyl)-(1H-pyrrolo[2,3-b]pyridin-6-yl)-amine]
≤ 10 µM: Flt1 | Pyk2

Clc1ccccc1Nc1ccc2cc[nH]c2n1 [Compound P-1375, (2-Chloro-phenyl)-(1H-pyrrolo[2,3-b]pyridin-6-yl)-amine]
≤ 10 µM: Pyk2 | Jnk3

CCCS(=O)(=O)Nc1ccc(F)c(C(=O)c2c[nH]c3ncc(-c4cccc(OC)c4)cc23)c1F [Compound P-0874, Propane-1-sulfonic acid {2,4-difluoro-3-[5-(3-methoxy-phenyl)-1H-pyrrolo[2,3-b]pyridine-3-carbonyl]-phenyl}-amide]
≤ 10 µM: B-Raf | Src | Fms | Kit | B-Raf V600E | Pyk2 | c-Raf-1 | FGFR1

COC(c1c(F)ccc(NS(=O)(=O)C(C)C)c1F)c1c[nH]c2ncc(-c3cccnc3)cc12 (stereo not drawn) [Compound P-0947, Propane-2-sulfonic acid {2,4-difluoro-3-[methoxy-(5-pyridin-3-yl-1H-pyrrolo[2,3-b]pyridin-3-yl)-methyl]-phenyl}-amide]
≤ 10 µM: B-Raf | B-Raf V600E | Pyk2 | c-Raf-1 | FGFR1

CCCS(=O)(=O)Nc1ccc(F)c(Cc2c[nH]c3ncc(-c4ccccc4)cc23)c1F [Compound P-0911, Propane-1-sulfonic acid [2,4-difluoro-3-(5-phenyl-1H-pyrrolo[2,3-b]pyridin-3-ylmethyl)-phenyl]-amide]
≤ 10 µM: Fak | B-Raf | Fms | Kit | B-Raf V600E | Pyk2 | c-Raf-1 | FGFR1

CCCC(=O)Nc1ccc(F)c(Cc2c[nH]c3ncc(Br)cc23)c1F [Compound P-1282]
≤ 10 µM: Fak | B-Raf | Fms | B-Raf V600E | Pyk2 | FGFR1

CCCS(=O)(=O)Nc1ccc(F)c(C(=O)c2c[nH]c3ncc(-c4ccc(C(F)(F)F)cc4)cc23)c1F [Compound P-0912, Propane-1-sulfonic acid {2,4-difluoro-3-[5-(4-trifluoromethyl-phenyl)-1H-pyrrolo[2,3-b]pyridine-3-carbonyl]-phenyl}-amide]
≤ 10 µM: B-Raf | B-Raf V600E | Pyk2 | c-Raf-1 | FGFR1

CCCS(=O)(=O)Nc1ccc(F)c(C(OC)c2c[nH]c3ncc(-c4ccccc4)cc23)c1F (stereo not drawn) [Compound P-0957]
≤ 10 µM: B-Raf V600E | Pyk2 | c-Raf-1
